From patent US8637679B2, “Process for the isolation of organic compounds useful for the treatment of cancer” (Council of Scientific and Industrial Research, priority 2011, dated 2014)
Entries after “also recorded” stand apart in the source; their conditions may differ.

Tests used:
T98G = assay: MTT cell viability assay, T98G; type: cell-based, human; settings: Homo sapiens, 48 hrs
Experimental: (§1) Human cervical cancer cell lines (HeLa, ME-180 and SiHa), brain tumor cell lines (U87MG, U373MG, U87MG EGFRvIII, T98G, A172 and LN229), lymphoid leukemia (MOLT-3, MOLT-4, REH and CEMC-7), myloid leukemia (K562), pancreatic cancer (MIAPaCa-2, AsPC-1, Panc-1 and Panc 10.05), lung cancer (A549) and colon cancer (HCT116 and SW480) cell lines from American Type Culture Collection, Manassas, Va., USA were grown in IMDM or RPMI (cell specific) Medium supplemented with 10% fetal bovine serum and 1% antibiotic-antimycotic. Cells were cultured in 37° C. in an atmosphere of 5% CO2.
(§2) Viability of cancer cell lines after treatment as at the indicated times was determined by MTT assay. Briefly, 10,000 cells were plated in triplicate in 96 well plates and incubated for 24 and 48 hours in complete media in presence of varying dose of mahanine (0-50 μM). 100 ug MTT was added in each well. Incubate the plate for 1-4 hours at 37° C. and humidified 5% CO2 atmosphere. Absorbance was recorded at 550 nm with 96 well plate readers.

Panc10.05 = assay: MTT cell viability assay, Panc10.05; type: cell-based, human; settings: Homo sapiens, Panc1005; Panc10.05, 48 hrs
Experimental: as §1, §2

NCIH23 = assay: MTT cell viability assay, NCIH23; type: cell-based, human; settings: Homo sapiens, NCI-H23; NCIH23, 48 hrs
Experimental: as §2

HCT116 = assay: MTT cell viability assay, HCT116; type: cell-based, human; settings: Homo sapiens, HCT-116; HCT116, 48 hrs
Experimental: as §1, §2

WI-38 = assay: MTT cell viability assay, WI-38 normal cells; type: cell-based, human
Experimental: as §2

U87MGEGFRvIII = assay: MTT cell viability assay, U87MGEGFRvIII; type: cell-based; settings: Homo sapiens, 48 hrs treatment
Experimental: as §1, §2

ME180 = assay: MTT cell viability assay, ME180; type: cell-based; settings: Homo sapiens, ME-180, ME180, 48 hr
Experimental: as §1, §2

[1] = system: glioma cells (U87MG, U373MG, LN229, A172 and T98G); assay: MTT assay, panel of glioma cell lines; type: cell-based, human; settings: Homo sapiens, Glioma cell, range over U87MG, 48 hr, read-out: IC50 values against different glioma cell lines
Experimental: as §1, §2

[2] = system: glioma (T98G) and cervical (HeLa) cancer cells; assay: Comparative cytotoxicity of mahanine and analogs by MTT; type: cell-based, human
Experimental: as §1, §2

HeLa = assay: 7-AAD flow cytometric apoptosis, HeLa; type: cell-based, human; settings: 25 μM mahanine
Experimental: (§3) U87MG, LN229, HeLa, SiHa and ME180 (1×10^6 cells) cells were cultured in 6-well plates in presence or absence of Mahanine (25 μM) for 24 hrs. Cells were washed in PBS, incubated with 7-Aminoactinomycin D (7-AAD) at 4° C. for 20 min and processed. Data acquisition was done on a FACSCalibur flow cytometer (BD) at excitation wavelength at 488 nm and emission wavelength at 647 nm and analyzed with CellQuestPro software.

SiHa = assay: 7-AAD flow cytometric apoptosis, SiHa; type: cell-based, human; settings: 25 μM mahanine
Experimental: as §3

human Hsp90 = assay: Surface plasmon resonance binding to immobilized Hsp90; settings: SPR, Hsp90-mahanine complex
Experimental: The portion of the sensorgram which corresponds to the dissociation of mahanine from Hsp90 was analyzed by the BIA evaluation program 2.1 to obtain the dissociation rate (kd) (FIG. 22). The experimental data fits well with the single exponential kinetic model used. Some experiments were repeated at a flow rate of 5 μl/min to check the effect of possible rebinding. Rebinding and mass transfer limitation was also checked by the repetition of the experiments at lower levels of immobilized Hsp90. […] Using the corresponding kd values nonlinear curve fitting of the association phase of the corresponding sensorgram was carried out with the BIA evaluation program 2.1 to obtain association rate (ka).
All the solutions were passed through a 0.22 micron Millipore filter and de-gassed in vacuum for 6-7 minutes at room temperature. For coupling Hsp90 to the SPR sensor chips, 400 μl (50 μg/ml) human Hsp90 was dialysed over night at 4° C. against coupling buffer containing 5 mM Na2HPO4, pH 7.4 and 150 mM NaCl to remove Tris, which interferes with the coupling. Before coupling, carboxymethyl-dextran sensor chips (CM5, Lot 1170768, Biacore, Upsala Sweden) were incubated with running buffer containing 10 mM HEPES, pH 7.4, 0.15 M KCl and 0.001% Tween-20 to prevent the unspecific binding of proteins to the capillaries in a BIAcore apparatus for 10 minutes at 25° C. at a flow rate of 5 μl/min. […]

[3] = system: intracellular Ca2+ in MIAPaCa-2; assay: Intracellular Ca2+ measurement (Fluo-3/AM); type: cell-based, human; settings: MIAPaCa-2, with and without extra-cellular Ca2+
Experimental: MIAPaCa-2 cells (3×10^6), treated with mahanine, were washed in 1× Hanks Balanced Salt Solution (HBSS) [Gibco, Invitrogen Corporation, USA] and then loaded with Fluo-3/AM (2 μM, Calbiochem, Germany) in HBSS containing 1.26 mM CaCl2. The cells were incubated at 37° C. for 30 min in dark with gentle agitation. All extracellular Fluo-3/AM was removed by two-three times washing in aforesaid buffer. The level of cytoplasmic Ca^2+ within Fluo-3/AM loaded MIAPaCa-2 was determined in time dependent manner in the absence and presence of CaCl2 (1.26 mM CaCl2).

MIAPaCa-2 = assay: Transmigration assay (EGF-driven); type: cell-based, human; settings: 24 hrs exposure
Experimental: MIAPaCa-2 cells were treated with mahanine in dose responsive manner for 24 hrs. Afterward, different growth factors (VEGF, EGF and PDGF) were dissolved in medium at a final concentration of 20 ng/ml and added into the outer well of the 24-transwell plate (PromoCell Heidelberg, Germany) as per manufacturer instruction. Mahanine-pretreated cells (5×10^4 cells/well/500 μl) were added into the insert and incubated at in a humidified incubator (37° C., 5% CO2) for 6 hours and subsequently invaded cells were fixed with chilled methanol and stained with 0.1% crystal violet. Random fields were photographed and quantified under the phase contrast microscope.

For `CC(C)=CCCC1(C)C=Cc2c(c(C)cc3c2[nH]c2cc(O)ccc23)O1` (stereo not shown) [Mahanine, mahanine], the IC50 (T98G) was 16.1 ± 0.9 µM, the IC50 (Panc10.05) was 18.5 ± 1.6 µM and the IC50 (NCIH23) was 7.08 ± 0.1 µM. The IC50 (HCT116) was 13.5 ± 0.8 µM, the IC50 (WI-38; Homo sapiens, WI-38 normal cell line, 48 hrs) was over 65 µM and the “sensitivity of WI-38 cells” value (WI-38; normal human lung fibroblast cells, in vitro) was “less sensitive; also recorded: minimum sensitivity”. For the same compound, the IC50 (U87MGEGFRvIII) was about 14 µM, the IC50 (ME180) was 14.6 µM and the IC50 [1] was 12 to 17 µM. For the same compound, the “fold less IC50 of mahanine compared to mahanimbine” value [2] was 2-2.5 fold, the “apoptosis (7-AAD+ve cells)” value (HeLa) was 92.28% and the “apoptosis (7-AAD+ve cells)” value (SiHa) was 97.13%. For the same compound, the “Dissociation constant (KD) (kd/ka)” value (human Hsp90) was 4.99 µM, the “time to maximum enhancement of intracellular Ca2+ pool” value [3] was at most 15 min and the “EGF-driven MIAPaCa-2 migration, % of controls” value (MIAPaCa-2; ~0.6×IC50 (10 μM)) was 48.6 % of controls. For the same compound, the “EGF-driven MIAPaCa-2 migration” value (MIAPaCa-2; ~1×IC50, 15 μM) was “nearly complete inhibition”.
